In patent US20260285872A1, “COMPOUNDS AND METHODS FOR DEGRADING GSPT1” (priority 2023, published 2026):
Where two headings read alike, the source gives them in different places.

Key:
MV-4-11 cells = assay: AML cell viability, CellTiter-Glo, MV-4-11 cells; type: cell-based; conditions: Homo sapiens
Description: MV4-11 cells were obtained from ATCC and grown in IMDM supplemented with 10% FBS. The cells were maintained at 37° C. under 5% CO2. […] The luminescence was normalized to that of DMSO-treated samples. IC50 values were obtained using three-parameter non-linear regressions using Prism (GraphPad). […] Cell viability was measured using the CellTiter-Glo reagent after 44 hours of treatment. […] MV4-11 cells were obtained from ATCC and grown in IMDM supplemented with 10% FBS. The cells were maintained at 37° C. under 5% CO2. […] Cell viability was measured using the CellTiter-Glo reagent after 44 hours of treatment.

GSPT1 = GSPT1 (Homo sapiens, UniProt P15170+Q96SW2); assay: cell-based; conditions: read-out: GSPT1 degradation classification
Chain of GSPT1 (P15170 whole entry): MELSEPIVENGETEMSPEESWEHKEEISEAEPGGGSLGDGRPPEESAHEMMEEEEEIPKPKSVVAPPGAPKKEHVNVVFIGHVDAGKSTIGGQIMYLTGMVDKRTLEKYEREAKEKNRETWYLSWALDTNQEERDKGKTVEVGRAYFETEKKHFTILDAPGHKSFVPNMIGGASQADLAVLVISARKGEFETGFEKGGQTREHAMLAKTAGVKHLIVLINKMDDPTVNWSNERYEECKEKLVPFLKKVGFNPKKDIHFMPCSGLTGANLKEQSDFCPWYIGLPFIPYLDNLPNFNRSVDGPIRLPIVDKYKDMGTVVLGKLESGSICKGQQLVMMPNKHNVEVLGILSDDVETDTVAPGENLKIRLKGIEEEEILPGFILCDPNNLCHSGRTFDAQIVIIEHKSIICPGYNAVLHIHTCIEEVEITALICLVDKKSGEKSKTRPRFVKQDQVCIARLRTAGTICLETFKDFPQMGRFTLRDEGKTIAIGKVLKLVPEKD
Chain of GSPT1 (Q96SW2 whole entry): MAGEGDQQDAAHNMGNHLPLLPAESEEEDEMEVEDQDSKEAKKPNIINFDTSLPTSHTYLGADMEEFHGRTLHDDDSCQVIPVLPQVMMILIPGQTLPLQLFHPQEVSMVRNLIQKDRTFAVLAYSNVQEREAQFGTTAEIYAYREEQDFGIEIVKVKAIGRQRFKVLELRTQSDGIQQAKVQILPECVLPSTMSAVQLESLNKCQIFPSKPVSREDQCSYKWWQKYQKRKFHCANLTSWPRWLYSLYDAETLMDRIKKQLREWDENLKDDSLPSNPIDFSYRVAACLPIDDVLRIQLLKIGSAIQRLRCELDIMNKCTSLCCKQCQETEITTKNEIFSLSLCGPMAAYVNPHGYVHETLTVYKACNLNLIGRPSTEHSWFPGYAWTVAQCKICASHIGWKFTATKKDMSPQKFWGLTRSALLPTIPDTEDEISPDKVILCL
Chain of GSPT1 (Q16531 whole entry partner): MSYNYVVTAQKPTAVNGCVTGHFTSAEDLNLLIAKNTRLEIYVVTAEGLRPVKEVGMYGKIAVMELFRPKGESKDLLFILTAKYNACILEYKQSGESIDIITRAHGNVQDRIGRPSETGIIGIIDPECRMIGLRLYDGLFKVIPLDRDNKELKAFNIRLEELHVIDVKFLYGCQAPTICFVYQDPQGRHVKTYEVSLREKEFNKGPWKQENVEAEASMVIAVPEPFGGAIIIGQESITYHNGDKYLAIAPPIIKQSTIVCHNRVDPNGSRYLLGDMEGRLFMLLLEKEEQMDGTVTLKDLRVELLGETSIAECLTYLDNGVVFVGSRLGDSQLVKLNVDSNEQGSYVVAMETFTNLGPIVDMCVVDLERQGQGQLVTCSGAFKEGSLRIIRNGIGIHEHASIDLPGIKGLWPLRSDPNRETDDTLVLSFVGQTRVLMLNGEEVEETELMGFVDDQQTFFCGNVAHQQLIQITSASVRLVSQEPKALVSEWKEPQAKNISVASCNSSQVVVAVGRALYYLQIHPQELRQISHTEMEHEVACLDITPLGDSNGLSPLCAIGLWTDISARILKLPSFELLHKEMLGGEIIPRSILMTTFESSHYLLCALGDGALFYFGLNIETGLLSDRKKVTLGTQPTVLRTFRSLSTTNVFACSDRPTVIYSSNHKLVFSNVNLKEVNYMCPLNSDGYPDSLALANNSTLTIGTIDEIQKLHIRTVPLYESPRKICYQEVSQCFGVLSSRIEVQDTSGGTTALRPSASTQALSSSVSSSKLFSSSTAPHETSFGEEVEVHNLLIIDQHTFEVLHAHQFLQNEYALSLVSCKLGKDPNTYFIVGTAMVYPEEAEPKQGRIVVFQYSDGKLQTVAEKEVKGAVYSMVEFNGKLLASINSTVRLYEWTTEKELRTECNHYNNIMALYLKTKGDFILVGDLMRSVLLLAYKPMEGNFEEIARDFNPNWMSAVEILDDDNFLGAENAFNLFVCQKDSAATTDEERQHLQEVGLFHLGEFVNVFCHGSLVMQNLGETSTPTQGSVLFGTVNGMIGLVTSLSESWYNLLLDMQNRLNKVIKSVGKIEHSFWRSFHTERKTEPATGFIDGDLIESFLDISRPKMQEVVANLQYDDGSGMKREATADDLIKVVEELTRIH

[1] = MV4-11, MV-4-11 cells, CellTiter-Glo, 44 hours of treatment, TABLE 1, read-out: Cell viability classification
[2] = MV4-11, MV-4-11 cells, 1 μM, 6 hours, Western Blot, % reduction of GSPT1 compared to DMSO, normalized to GAPDH
[3] = MV4-11, MV-4-11 cells, CellTiter-Glo, 44 hours of treatment, TABLE 5, read-out: Cell viability classification (MV-4-11)
[4] = MV4-11, 44 h, read-out: Cell viability classification

Compound | IC50 (MV-4-11 cells; [1]) [nM] | inhibition at 1 µM (GSPT1; MV4-11, 6 h) [%] | further results
O=C1CCC(N2Cc3cc(C(=O)Nc4csc5cccnc45)ccc3C2=O)C(=O)N1 (centres unmarked) [Example 59, 2-(2,6-dioxopiperidin-3-yl)-1-oxo-N-(thieno[3,2-b]pyridin-3-yl)isoindoline-5-carboxamide] | < 100 | – | inhibition at 1 µM (GSPT1; [2]): > 75%
O=C1CCC(N2Cc3cc(C(=O)Nc4ccsc4)ccc3C2=O)C(=O)N1 (centres unmarked) [Example 58, 2-(2,6-dioxopiperidin-3-yl)-1-oxo-N-(thiophen-3-yl)isoindoline-5-carboxamide] | < 100 | > 75 | –
O=C1CCC(N2Cc3cc(C(=O)Nc4csc5ccncc45)ccc3C2=O)C(=O)N1 (centres unmarked) [Example 60] | 100 to 1000 | – | inhibition at 1 µM (GSPT1; [2]): 50 to 75%
O=C1CCC(N2Cc3cc(C(=O)N4CCc5cc(OC(F)(F)F)ccc54)ccc3C2=O)C(=O)N1 (centres unmarked) [Example 80, 3-(1-oxo-5-(5-(trifluoromethoxy)indoline-1-carbonyl)isoindolin-2-yl)piperidine-2,6-dione] | 100 to 1000 | 50 to 75 | –
O=C1CCC(N2Cc3cc(C(=O)Nc4csc5ncccc45)ccc3C2=O)C(=O)N1 (centres unmarked) [Example 62, 2-(2,6-dioxopiperidin-3-yl)-1-oxo-N-(thieno[2,3-b]pyridin-3-yl)isoindoline-5-carboxamide] | > 1000 | – | inhibition at 1 µM (GSPT1; [2]): < 50%
O=C1CCC(N2Cc3cc(C(=O)N4Cc5ccncc5C4)ccc3C2=O)C(=O)N1 (centres unmarked) [Example 31, 3-(5-(2,3-dihydro-1H-pyrrolo[3,4-c]pyridine-2-carbonyl)-1-oxoisoindolin-2-yl)piperidine-2,6-dione] | 100 to 1000 | – | inhibition at 1 µM (GSPT1; [2]): 50 to 75%
COc1ccc2c(c1)CCN2C(=O)c1ccc2c(c1)CN(C1CCC(=O)NC1=O)C2=O (centres unmarked) [Example 83, 3-(5-(5-methoxyindoline-1-carbonyl)-1-oxoisoindolin-2-yl)piperidine-2,6-dione] | < 100 | < 50 | –
O=C1CCC(N2Cc3cc(C(=O)N4CCc5cccc(F)c54)ccc3C2=O)C(=O)N1 (centres unmarked) [Example 76, 3-(5-(7-fluoroindoline-1-carbonyl)-1-oxoisoindolin-2-yl)piperidine-2,6-dione] | 100 to 1000 | < 50 | –
O=C1CCC(N2Cc3cc(C(=O)N4CCc5cc(Cl)cc(F)c54)ccc3C2=O)C(=O)N1 (centres unmarked) [Example 56, 3-(5-(5-chloro-7-fluoroindoline-1-carbonyl)-1-oxoisoindolin-2-yl)piperidine-2,6-dione] | 100 to 1000 | – | inhibition at 1 µM (GSPT1; [2]): 50 to 75%
O=C1CCC(N2Cc3cc(C(=O)N4CCc5cc(F)ccc54)ccc3C2=O)C(=O)N1 (centres unmarked) [Example 75, 3-(5-(5-fluoroindoline-1-carbonyl)-1-oxoisoindolin-2-yl)piperidine-2,6-dione] | < 100 | > 75 | –
COc1cccc2c1N(C(=O)c1ccc3c(c1)CN(C1CCC(=O)NC1=O)C3=O)CC2 (centres unmarked) [Example 85, 3-(5-(7-methoxyindoline-1-carbonyl)-1-oxoisoindolin-2-yl)piperidine-2,6-dione] | 100 to 1000 | – | inhibition at 1 µM (GSPT1; [2]): < 50%
O=C1CCC(N2Cc3cc(C(=O)N4Cc5cccc(C(F)(F)F)c5C4)ccc3C2=O)C(=O)N1 (centres unmarked) [Example 21, 3-(1-oxo-5-(4-(trifluoromethyl)isoindoline-2-carbonyl)isoindolin-2-yl)piperidine-2,6-dione] | < 100 | – | inhibition at 1 µM (GSPT1; [2]): > 75%
O=C1CCN(c2ccc3ccc(C(=O)N4Cc5ccccc5C4)cc3c2)C(=O)N1 [Example 125, 1-(7-(isoindoline-2-carbonyl)naphthalen-2-yl)dihydropyrimidine-2,4(1H,3H)-dione] | – | – | IC50 (MV-4-11 cells; [3]): 100 to 1000 nM
O=C1CC[C@H](N2Cc3cc(C(=O)Nc4cncc5ccccc45)ccc3C2=O)C(=O)N1 (stereo in doubt) [Example 2, 2-(2,6-dioxopiperidin-3-yl)-N-(isoquinolin-4-yl)-1-oxoisoindoline-5-carboxamide] | 100 to 1000 | – | –
O=C1CCC(N2Cc3cc(C(=O)N4CCc5c(F)cccc54)ccc3C2=O)C(=O)N1 (centres unmarked) [Example 74, 3-(5-(4-fluoroindoline-1-carbonyl)-1-oxoisoindolin-2-yl)piperidine-2,6-dione] | < 100 | > 75 | –
O=C1CCC(N2Cc3cc(C(=O)N4CCc5ccc(C(F)(F)F)cc54)ccc3C2=O)C(=O)N1 (centres unmarked) [Example 79, 3-(1-oxo-5-(6-(trifluoromethyl)indoline-1-carbonyl)isoindolin-2-yl)piperidine-2,6-dione] | 100 to 1000 | 50 to 75 | –
COc1ccc2c(c1)N(C(=O)c1ccc3c(c1)CN(C1CCC(=O)NC1=O)C3=O)CC2 (centres unmarked) [Example 84, 3-(5-(6-methoxyindoline-1-carbonyl)-1-oxoisoindolin-2-yl)piperidine-2,6-dione] | 100 to 1000 | < 50 | –
O=C1CCC(N2Cc3cc(C(=O)N[C@H]4CCc5ccccc54)ccc3C2=O)C(=O)N1 (stereo partly drawn) [Example 1, N—((S)-2,3-dihydro-1H-inden-1-yl)-2-(2,6-dioxopiperidin-3-yl)-1-oxoisoindoline-5-carboxamide] | – | < 50 | IC50 (MV-4-11 cells; [4]): < 100 nM
O=C1CCN(c2ccc3ccc(C(=O)N4CCc5cc(F)ccc54)cc3c2)C(=O)N1 [Example 119, 1-(7-(5-fluoroindoline-1-carbonyl)naphthalen-2-yl)dihydropyrimidine-2,4(1H,3H)-dione] | – | – | IC50 (MV-4-11 cells; [3]): > 1000 nM
O=C1CCC(N2Cc3cc(C(=O)N4CCc5ccccc54)ccc3C2=O)C(=O)N1 (centres unmarked) [Example 11, 3-(5-(indoline-1-carbonyl)-1-oxoisoindolin-2-yl)piperidine-2,6-dione] | – | > 75 | IC50 (MV-4-11 cells; [4]): < 100 nM
O=C1CCC(N2Cc3cc(C(=O)N4CCc5cc(C(F)(F)F)ccc54)ccc3C2=O)C(=O)N1 (centres unmarked) [Example 78, 3-(1-oxo-5-(5-(trifluoromethyl)indoline-1-carbonyl)isoindolin-2-yl)piperidine-2,6-dione] | 100 to 1000 | 50 to 75 | –
O=C1CCC(N2Cc3cc(C(=O)N4Cc5ccccc5C4)ccc3C2=O)C(=O)N1 (centres unmarked) [Example 12, 3-(5-(isoindoline-2-carbonyl)-1-oxoisoindolin-2-yl)piperidine-2,6-dione] | < 100 | – | –
O=C1CCC(N2Cc3cc(C(=O)N4CCc5ncccc54)ccc3C2=O)C(=O)N1 (centres unmarked) [Example 28, 3-(5-(2,3-dihydro-1H-pyrrolo[3,2-b]pyridine-1-carbonyl)-1-oxoisoindolin-2-yl)piperidine-2,6-dione] | < 100 | – | inhibition at 1 µM (GSPT1; [2]): 50 to 75%
O=C1CCC(N2Cc3cc(C(=O)N4CCc5ccc(F)cc54)ccc3C2=O)C(=O)N1 (centres unmarked) [Example 32, 3-(5-(6-fluoroindoline-1-carbonyl)-1-oxoisoindolin-2-yl)piperidine-2,6-dione] | < 100 | > 75 | –
O=C1CCN(c2ccc3ccc(C(=O)N4CCc5cccc(F)c54)cc3c2)C(=O)N1 [Example 118, 1-(7-(7-fluoroindoline-1-carbonyl)naphthalen-2-yl)dihydropyrimidine-2,4(1H,3H)-dione] | – | – | IC50 (MV-4-11 cells; [3]): > 1000 nM
O=C1CCN(c2ccc3ccc(C(=O)N4CCc5ccccc5C4)cc3c2)C(=O)N1 [Example 129, 1-(7-(1,2,3,4-tetrahydroisoquinoline-2-carbonyl)naphthalen-2-yl)dihydropyrimidine-2,4(1H,3H)-dione] | – | – | IC50 (MV-4-11 cells; [3]): > 1000 nM
O=C1CCN(c2ccc3ccc(C(=O)N4CCCc5ccccc54)cc3c2)C(=O)N1 [Example 128, 1-(7-(1,2,3,4-tetrahydroquinoline-1-carbonyl)naphthalen-2-yl)dihydropyrimidine-2,4(1H,3H)-dione] | – | – | IC50 (MV-4-11 cells; [3]): > 1000 nM
